Reference: US9675652B2, “Compositions and methods to relieve chronic diseases symptoms” (priority 2011, dated 2017)

System: Hep G2.2.15 cells
Assay: Cell viability by MTT, Hep G2.2.15 cells
Assay type: cell-based, human
Procedure: The Hep G2.2.15 cells were seeded at 3×10^4 cells/well into 96-well culture plates and incubated at 37° C. in 5% CO2 overnight. After 3 to 4 days, the confluent cultures were cultured at 37° C. for another 3 to 5 days for HBV surface antigen (HBsAg) and HBV e-antigen (HBeAg) induction. Various concentrations of test articles including the positive control substance were then added during the 72 hrs induction period. The cultured media were harvested by centrifugation and the levels of HBsAg and HBeAg were analyzed with commercial enzyme-linked immunosorbant assay (ELISA) kits for HBsAg qualitative testing (General Biologicals Corp., SURASE B-96 (TMB)) and that for HBeAg qualitative testing (General Biologicals Corp., EASE BN-96 (TMB)), respectively. The activity expressed in terms of the efficiency of antigen secretion in percentage (hereinafter referred to as “relative activity”) was calculated with the equation Relative activity (%)=The ratio of the amount of antigen in the cultured medium with treatment to that without treatment×100.
Cell viability was assayed by the MTT method.

For CC(C)(C)C(=O)OCOP(=O)(COCCn1cnc2c(N)ncnc21)OCOC(=O)C(C)(C)C [Adefovir, Adefovir dipivoxil], the “MTT (+) drug/(−) drug (Ratio), cytotoxicity” value (0.2 uM) was 0.961 and the “MTT (+) drug/(−) drug (Ratio), cytotoxicity” value (1 uM) was 0.953.
